Assay results taken from patent US8470822B2, “Folate mimetics and folate-receptor binding conjugates thereof” (Purdue Research Foundation, priority 2001, dated 2013).
Several values for one entry are separate records, joined by “and”; a condition that tells them apart may be missing. Identical values can stand only once.

Legend:
[1] = HPLC analysis of stability of the isolated radiometal complex; format: physicochemical; details: room temperature
Experimental: The major radioactive HPLC peak, eluting with a retention time of 14.1 minutes, was collected. […] HPLC conditions: Solvent A=56 mM NH4OAc in water; Solvent B═CH3CN. Flow rate=1 mL/min on 4.6×250 mm C18 reverse-phase column. Linear gradient conditions: 5% B at zero minutes, ramping to 25% B at 25 minutes, then ramping to 60% B at 27 minutes and 100% B at 30 minutes.
HPLC-purified ^64Cu-CY4-036 was removed from the HPLC solvents by solid-phase extraction. A C18 Sep-Pak Light solid phase extraction cartridge (Millipore, Inc.) was conditioned by washing with ethanol followed by water. The HPLC-purified ^64Cu-CY4-036 was loaded onto the C18 Sep-Pak after dilution with water to 5% acetonitrile, the Sep-Pak was washed with 20 mL water, and the ^64Cu-CY4-036 product recovered by fractional elution with ethanol. The resulting ethanol solution of ^64Cu-CY4-036 was evaporated to dryness under a stream of N2 at room temperature, and the ^64Cu-CY4-036 was reconstituted in water. Analytical HPLC confirmed the radiochemical purity, and stability, of the isolated ^64Cu-CY4-036 product. HPLC conditions: Solvent A=53 mM NH4OAc in water; Solvent B═CH3CN. Flow rate=1 mL/min on 4.6×250 mm C18 reverse-phase analytical column. Linear gradient conditions: 5% B at zero minutes, ramping to 25% B at 25 minutes, then ramping to 60% B at 27 minutes and 100% B at 30 minutes.

[2] = system: folate-receptor-positive human KB cell tumor xenografts; experiment: Biodistribution of 111In radiotracer in KB tumor-bearing athymic mice after intravenous administration; format: in vivo; details: for Percentage of Injected 111In Dose Per Organ (Tissue): Muscle: muscle assumed 42% of body mass
Experimental: Our primary animal model for evaluation of the biodistribution and pharmacokinetics of folate-receptor-targeted radiopharmaceuticals has been athymic mice bearing subcutaneously implanted folate-receptor-positive human KB cell tumors. […] After 3 weeks on folate-free diet, mouse serum folate levels drop to 25±7 nM from the initial 720±260 nM serum folate level when the animals are fed normal rodent chow. This dietary intervention is believed to be a reasonable manipulation of the animal model, since the mice would have serum folate levels only slightly higher than the folate concentration of normal human serum. Thus, in these mouse biodistribution studies the radiotracer is competing for tumor folate receptors with physiologically relevant concentrations of endogenous unlabeled serum folate.
The substantial retention of ^111In in the kidneys is fully consistent with the binding of ^111In-CYK4-013 to tissue folate receptors, since the renal proximal tubule is a known normal tissue site of folate receptor expression. […] The behavior of the ^111In-CYK4-013 radiopharmaceutical in this animal model (Table 2) is very similar to that observed for ^111In-DTPA-Folate (Table 3).
Results. Similar to ^111In-DTPA-Folate, ^111In-CYK4-013 selectively localized in the folate-receptor-positive tumor xenografts, and afforded prolonged tumor retention of ^111In (5.4±0.8; 5.5±1.1; and 3.6±0.6% ID/g at 1 hour, 4 hours, and 24 hours, respectively) (Table 2). […] Blockable binding was also observed in the kidneys, where the folate receptor occurs in the proximal tubules.

[3] = 1 Hour after intravenous administration
[4] = 4 Hours after intravenous administration

Nc1nc(O)c2nc(CNc3ccc(C(=O)NCCOCCOCCNC(=O)CN(CCN(CCN(CC(=O)O)CC(=O)O)CC(=O)O)CC(=O)O)cc3)cnc2n1.[111In+3] [^111In-CYK4-013]
time the isolated HPLC peak remains stable [1]: at least 7 days | Percentage of Injected 111In Dose Per Gram (Tissue Wet Mass): Blood [2, 3]: 0.18 ± 0.01 % ID/g | Percentage of Injected 111In Dose Per Gram (Tissue Wet Mass): Heart [2, 3]: 3.5 ± 0.4 % ID/g | Percentage of Injected 111In Dose Per Gram (Tissue Wet Mass): Kidney (one) [2, 3]: 61 ± 5 % ID/g | Percentage of Injected 111In Dose Per Gram (Tissue Wet Mass): Liver & Gall Bladder [2, 3]: 4.3 ± 0.7 % ID/g | Percentage of Injected 111In Dose Per Gram (Tissue Wet Mass): Lungs [2, 3]: 1.5 ± 0.2 % ID/g | Percentage of Injected 111In Dose Per Gram (Tissue Wet Mass): Muscle [2, 3]: 3.5 ± 0.5 % ID/g | Percentage of Injected 111In Dose Per Gram (Tissue Wet Mass): Spleen [2, 3]: 0.31 ± 0.09 % ID/g | Percentage of Injected 111In Dose Per Gram (Tissue Wet Mass): Stomach, Intestines & Contents [2, 3]: 1.7 ± 0.2 % ID/g | Percentage of Injected 111In Dose Per Gram (Tissue Wet Mass): Tumor [2, 3]: 5.4±0.8 % ID/g | Percentage of Injected 111In Dose Per Organ (Tissue): Blood [2, 3]: 0.29 ± 0.003 Percentage of Injected 111In D | Percentage of Injected 111In Dose Per Organ (Tissue): Heart [2, 3]: 0.51 ± 0.09 Percentage of Injected 111In D | Percentage of Injected 111In Dose Per Organ (Tissue): Kidney (one) [2, 3]: 15.3 ± 1.2 Percentage of Injected 111In D | Percentage of Injected 111In Dose Per Organ (Tissue): Liver & Gall Bladder [2, 3]: 6.8 ± 1.3 Percentage of Injected 111In D | Percentage of Injected 111In Dose Per Organ (Tissue): Lungs [2, 3]: 0.69 ± 0.06 Percentage of Injected 111In D | Percentage of Injected 111In Dose Per Organ (Tissue): Spleen [2, 3]: 0.063 ± 0.016 Percentage of Injected 111In D | Percentage of Injected 111In Dose Per Organ (Tissue): Stomach, Intestines & Contents [2, 3]: 5.8 ± 0.5 Percentage of Injected 111In D | Percentage of Injected 111In Dose Per Organ (Tissue): Tumor [2, 3]: 0.78 ± 0.47 Percentage of Injected 111In D | Tumor/blood ratio [2, 3]: 30 ± 5 | Tumor/kidney ratio [2, 3]: 0.088 ± 0.013 | Tumor/liver ratio [2, 3]: 1.3 ± 0.4 | Tumor/muscle ratio [2, 3]: 1.6 ± 0.4 | Percentage of Injected 111In Dose Per Organ (Tissue): Muscle [2, 3]: 43.6 ± 4.1 Percentage of Injected 111In D | Percentage of Injected 111In Dose Per Gram (Tissue Wet Mass): Blood [2, 4]: 0.050 ± 0.009 % ID/g | Percentage of Injected 111In Dose Per Gram (Tissue Wet Mass): Heart [2, 4]: 2.9 ± 0.9 % ID/g | Percentage of Injected 111In Dose Per Gram (Tissue Wet Mass): Kidney (one) [2, 4]: 81 ± 7 % ID/g | Percentage of Injected 111In Dose Per Gram (Tissue Wet Mass): Liver & Gall Bladder [2, 4]: 1.9 ± 0.6 % ID/g | Percentage of Injected 111In Dose Per Gram (Tissue Wet Mass): Lungs [2, 4]: 1.4 ± 0.3 % ID/g | Percentage of Injected 111In Dose Per Gram (Tissue Wet Mass): Muscle [2, 4]: 2.8 ± 0.8 % ID/g | Percentage of Injected 111In Dose Per Gram (Tissue Wet Mass): Spleen [2, 4]: 0.29 ± 0.07 % ID/g | Percentage of Injected 111In Dose Per Gram (Tissue Wet Mass): Stomach, Intestines & Contents [2, 4]: 1.5 ± 0.9 % ID/g | Percentage of Injected 111In Dose Per Gram (Tissue Wet Mass): Tumor [2, 4]: 5.5±1.1 % ID/g and 5.6 ± 1.1 % ID/g | Percentage of Injected 111In Dose Per Organ (Tissue): Blood [2, 4]: 0.078 ± 0.010 Percentage of Injected 111In D | Percentage of Injected 111In Dose Per Organ (Tissue): Heart [2, 4]: 0.41 ± 0.08 Percentage of Injected 111In D | Percentage of Injected 111In Dose Per Organ (Tissue): Kidney (one) [2, 4]: 20.2 ± 1.6 Percentage of Injected 111In D | Percentage of Injected 111In Dose Per Organ (Tissue): Liver & Gall Bladder [2, 4]: 3.0 ± 1.0 Percentage of Injected 111In D | Percentage of Injected 111In Dose Per Organ (Tissue): Lungs [2, 4]: 0.60 ± 0.01 Percentage of Injected 111In D | Percentage of Injected 111In Dose Per Organ (Tissue): Spleen [2, 4]: 0.049 ± 0.012 Percentage of Injected 111In D | Percentage of Injected 111In Dose Per Organ (Tissue): Stomach, Intestines & Contents [2, 4]: 5.4 ± 0.8 Percentage of Injected 111In D | Percentage of Injected 111In Dose Per Organ (Tissue): Tumor [2, 4]: 0.46 ± 0.26 Percentage of Injected 111In D | Tumor/blood ratio [2, 4]: 111 ± 11 | Tumor/kidney ratio [2, 4]: 0.069 ± 0.013 | Tumor/liver ratio [2, 4]: 3.0 ± 0.5 | Tumor/muscle ratio [2, 4]: 2.1 ± 0.2 | Percentage of Injected 111In Dose Per Organ (Tissue): Muscle [2, 4]: 33 ± 9 Percentage of Injected 111In D
